Laboratory results reported in ChEMBL document CHEMBL1201862, “PubChem BioAssay data set” (2004).
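Five concentrations, 48 hours, 96-well plates. GI50 marks 50% less growth.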 Activity calls are given as the source filed them. No stated cut-off is given here; in the data, active = GI50 up to about 1.1 µM and inactive = higher.

How the values were obtained:
Assay in all cases: growth of human tumour cells (NCI), 48 h
OVCAR-5 = system: OVCAR-5
M14 = system: M14
NCI-H23 = system: NCI-H23
OVCAR-4 = system: OVCAR-4
SR = system: SR
IGROV-1 = system: IGROV-1
A549 = system: A549
KM12 = system: KM12
786-0 = system: 786-0
SNB-75 = system: SNB-75
ACHN = system: ACHN
UACC-62 = system: UACC-62
SK-OV-3 = system: SK-OV-3
LOX IMVI = system: LOX IMVI

Measured: GI50

C/C=C/C1(NS(=O)(=O)c2ccc(C)cc2)CCC(C(C)(C)C)CC1 (stereo unspecified)
inactive: OVCAR-5 20.7 µM | M14 17.3 µM | NCI-H23 18.8 µM | OVCAR-4 23 µM | SR 13.6 µM | IGROV-1 28.8 µM | A549 40.7 µM | KM12 20.8 µM | 786-0 19 µM | SNB-75 53.6 µM | ACHN 36.2 µM | UACC-62 19 µM | SK-OV-3 27.4 µM

CCOC(=O)/C(=C/c1ccc(C(=O)OC)cc1)N(CC)CC
inactive: OVCAR-5 > 100 µM | M14 40.2 µM | NCI-H23 36.6 µM | LOX IMVI 63.2 µM | OVCAR-4 48.2 µM | SR 47.9 µM | IGROV-1 > 100 µM | A549 24.5 µM | KM12 41.3 µM | 786-0 41 µM | ACHN 60.5 µM | UACC-62 53.5 µM | SK-OV-3 50.5 µM

CC1(C)C(=NNC(=S)NN)C(C)(C)C1=NNC(=S)NN
inactive: OVCAR-5 > 100 µM | M14 > 100 µM | NCI-H23 > 100 µM | LOX IMVI > 100 µM | OVCAR-4 > 100 µM | IGROV-1 > 100 µM | A549 > 100 µM | 786-0 > 100 µM | SNB-75 98.4 µM | ACHN > 100 µM | UACC-62 > 100 µM | SK-OV-3 > 100 µM

O=C(CCc1cc(-c2ccccc2)[nH]c(=S)n1)Nc1ccccc1[N+](=O)[O-]
inactive: OVCAR-5 > 100 µM | M14 > 100 µM | NCI-H23 > 100 µM | LOX IMVI > 100 µM | SR > 100 µM | IGROV-1 > 100 µM | A549 > 100 µM | KM12 > 100 µM | 786-0 > 100 µM | SNB-75 > 100 µM | ACHN > 100 µM | UACC-62 > 100 µM | SK-OV-3 > 100 µM

COc1cccc(C2N3CCCCC3[C@@H]3c4[nH]c5ccccc5c4CCN23)c1OC (stereo partly specified)
inactive: OVCAR-5 15.9 µM | M14 16.1 µM | NCI-H23 16.9 µM | OVCAR-4 17.7 µM | IGROV-1 18.2 µM | A549 15.8 µM | 786-0 18.3 µM | ACHN 15.2 µM | UACC-62 11.6 µM | SK-OV-3 17.5 µM

CC/C(=N/O)c1ccc2[nH]c3c(C)cc([N+](=O)[O-])c(C)c3c2c1
inactive: OVCAR-5 > 100 µM | M14 23.6 µM | NCI-H23 82.4 µM | LOX IMVI 54.1 µM | OVCAR-4 87.9 µM | SR 24.4 µM | A549 17.1 µM | KM12 37.4 µM | 786-0 36 µM | SNB-75 57.3 µM | ACHN 25.1 µM

c1ccc2c(OCCSCCCCCCCCCCSCCOc3cccc4ccccc34)cccc2c1
inactive: OVCAR-5 > 100 µM | NCI-H23 > 100 µM | LOX IMVI > 100 µM | IGROV-1 > 100 µM | A549 > 100 µM | KM12 > 100 µM | 786-0 > 100 µM | SNB-75 > 100 µM | ACHN > 100 µM | UACC-62 > 100 µM | SK-OV-3 > 100 µM

O=C(CC(=O)c1cccc([N+](=O)[O-])c1)C(=O)Nc1ccccc1
inactive: OVCAR-5 > 100 µM | M14 > 100 µM | NCI-H23 > 100 µM | LOX IMVI > 100 µM | OVCAR-4 > 100 µM | IGROV-1 > 100 µM | A549 > 100 µM | KM12 > 100 µM | 786-0 > 100 µM | SNB-75 > 100 µM | ACHN > 100 µM | UACC-62 > 100 µM

CS(=O)(=O)NNS(=O)(=O)c1ccccc1
inactive: M14 > 100 µM | NCI-H23 > 100 µM | LOX IMVI > 100 µM | OVCAR-4 > 100 µM | SR > 100 µM | IGROV-1 > 100 µM | A549 > 100 µM | KM12 > 100 µM | 786-0 > 100 µM | SNB-75 > 100 µM | ACHN > 100 µM | UACC-62 > 100 µM

CCCCNS(=O)(=O)c1ccc(-c2ccc3c(c2)-c2ccc(S(=O)(=O)NCCCC)cc2S3(=O)=O)cc1
inactive: OVCAR-5 > 100 µM | M14 17.3 µM | NCI-H23 12.7 µM | LOX IMVI 15 µM | OVCAR-4 2.65 µM | SR 72.1 µM | IGROV-1 32.8 µM | A549 14 µM | KM12 22.9 µM | 786-0 11.6 µM | ACHN 21.6 µM | UACC-62 13.2 µM | SK-OV-3 16.9 µM

CN[C@@H](C)[C@@H](N)c1ccccc1
inactive: M14 > 100 µM | NCI-H23 > 100 µM | LOX IMVI > 100 µM | IGROV-1 > 100 µM | A549 > 100 µM | 786-0 > 100 µM | SNB-75 62.8 µM | ACHN > 100 µM | UACC-62 > 100 µM | SK-OV-3 > 100 µM

C/C(=C\Cc1cc(O)ccc1O)CCc1c(C)c(O)c(O)c(C=O)c1C [PANICEIN C]
inactive: M14 25.5 µM | NCI-H23 18.4 µM | OVCAR-4 26.5 µM | SR 7.38 µM | IGROV-1 17.1 µM | A549 30.4 µM | KM12 20.3 µM | 786-0 25.6 µM | SNB-75 33.3 µM | ACHN 20.3 µM | SK-OV-3 26.7 µM

[N-]=[N+]=NCC(O)Cn1cnc2c(NC(=O)c3ccccc3)ncnc21 (stereo unspecified)
inactive: OVCAR-5 > 100 µM | M14 > 100 µM | NCI-H23 > 100 µM | LOX IMVI > 100 µM | OVCAR-4 > 100 µM | IGROV-1 > 100 µM | A549 > 100 µM | KM12 > 100 µM | 786-0 41.8 µM | SNB-75 > 100 µM | ACHN > 100 µM | UACC-62 > 100 µM

Nc1ncnc2c1ncn2C1OC(CSC(F)(F)F)C(O)C1O (stereo unspecified)
inactive: OVCAR-5 > 100 µM | M14 > 100 µM | NCI-H23 > 100 µM | LOX IMVI > 100 µM | OVCAR-4 > 100 µM | IGROV-1 > 100 µM | A549 > 100 µM | KM12 > 100 µM | 786-0 > 100 µM | SNB-75 > 100 µM | ACHN > 100 µM | UACC-62 > 100 µM | SK-OV-3 > 100 µM

Nc1ccc2nc(NCc3ccc(F)cc3)cnc2c1
inactive: OVCAR-5 > 100 µM | M14 > 100 µM | NCI-H23 > 100 µM | LOX IMVI > 100 µM | OVCAR-4 > 100 µM | SR 66.7 µM | IGROV-1 > 100 µM | A549 > 100 µM | KM12 > 100 µM | 786-0 > 100 µM | SNB-75 29.2 µM | ACHN > 100 µM | UACC-62 > 100 µM

CCOC(=O)COc1cccc2c1C(=O)CCO2
inactive: OVCAR-5 > 100 µM | M14 > 100 µM | NCI-H23 > 100 µM | LOX IMVI > 100 µM | OVCAR-4 > 100 µM | IGROV-1 > 100 µM | A549 > 100 µM | KM12 > 100 µM | 786-0 > 100 µM | ACHN > 100 µM | UACC-62 > 100 µM | SK-OV-3 > 100 µM
